Laboratory results: ChEMBL document CHEMBL1681728, “An automated, polymer-assisted strategy for the preparation of urea and thiourea derivatives of 15-membered azalides as potential antimalarial chemotherapeutics” (Bioorg Med Chem, 2011)

Columns and labels:
Type in all cases: functional, organism-based
Plasmodium falciparum [1] = experiment: Antimalarial activity against multidrug-resistant Plasmodium falciparum TM91C235 assessed as inhibition of [3H]hypoxanthine incorporation after 96 hrs by microtiter plate scintillation counting
Plasmodium falciparum [2] = experiment: Antimalarial activity against chloroquine-sensitive Plasmodium falciparum D6 assessed as inhibition of [3H]hypoxanthine incorporation after 96 hrs by microtiter plate scintillation counting
Plasmodium falciparum [3] = experiment: Antimalarial activity against chloroquine-,pyrimethamine-resistant Plasmodium falciparum W2 assessed as inhibition of [3H]hypoxanthine incorporation after 96 hrs by microtiter plate scintillation counting

Compound | IC50 (Plasmodium falciparum [1]) | IC50 (Plasmodium falciparum [2]) | IC50 (Plasmodium falciparum [3])
CC[C@H]1OC(=O)[C@H](C)[C@@H](O[C@H]2C[C@@](C)(OC)[C@@H](O)[C@H](C)O2)[C@H](C)[C@@H](O[C@@H]2O[C@H](C)C[C@H](N(C)C)[C@H]2O)[C@](C)(O)C[C@@H](C)CN(CCCNC(=S)Nc2ccccc2F)[C@H](C)[C@@H](O)[C@]1(C)O | 122 nM | 987 nM | 400 nM
CC[C@H]1OC(=O)[C@H](C)[C@@H](O[C@H]2C[C@@](C)(OC)[C@@H](O)[C@H](C)O2)[C@H](C)[C@@H](O[C@@H]2O[C@H](C)C[C@H](N(C)C)[C@H]2O)[C@](C)(O)C[C@@H](C)CN(CCCNC(=S)N[C@H]2CCCC[C@H]2OCc2ccccc2)[C@H](C)[C@@H](O)[C@]1(C)O | 126 nM | 645 nM | 274 nM
CC[C@H]1OC(=O)[C@H](C)[C@@H](O[C@H]2C[C@@](C)(OC)[C@@H](O)[C@H](C)O2)[C@H](C)[C@@H](O[C@@H]2O[C@H](C)C[C@H](N(C)C)[C@H]2O)[C@](C)(O)C[C@@H](C)CN(CCCNC(=O)Nc2ccc(F)c(F)c2)[C@H](C)[C@@H](O)[C@]1(C)O | 127 nM | 300 nM | 89.6 nM
CC[C@H]1OC(=O)[C@H](C)[C@@H](O[C@H]2C[C@@](C)(OC)[C@@H](O)[C@H](C)O2)[C@H](C)[C@@H](O[C@@H]2O[C@H](C)C[C@H](N(C)C)[C@H]2O)[C@](C)(O)C[C@@H](C)CN(CCCNC(=S)Nc2ccc(Oc3ccccc3)nc2)[C@H](C)[C@@H](O)[C@]1(C)O | 133 nM | 215 nM | 109 nM
CC[C@H]1OC(=O)[C@H](C)[C@@H](O[C@H]2C[C@@](C)(OC)[C@@H](O)[C@H](C)O2)[C@H](C)[C@@H](O[C@@H]2O[C@H](C)C[C@H](N(C)C)[C@H]2O)[C@](C)(O)C[C@@H](C)CN(CCCNC(=O)Nc2cccc(SC)c2)[C@H](C)[C@@H](O)[C@]1(C)O | 137 nM | 332 nM | 73.9 nM
CC[C@H]1OC(=O)[C@H](C)[C@@H](O[C@H]2C[C@@](C)(OC)[C@@H](O)[C@H](C)O2)[C@H](C)[C@@H](O[C@@H]2O[C@H](C)C[C@H](N(C)C)[C@H]2O)[C@](C)(O)C[C@@H](C)CN(CCCNC(=O)Nc2ccccc2-c2ccccc2)[C@H](C)[C@@H](O)[C@]1(C)O | 137 nM | 254 nM | 202 nM
CC[C@H]1OC(=O)[C@H](C)[C@@H](O[C@H]2C[C@@](C)(OC)[C@@H](O)[C@H](C)O2)[C@H](C)[C@@H](O[C@@H]2O[C@H](C)C[C@H](N(C)C)[C@H]2O)[C@](C)(O)C[C@@H](C)CN(CCCNC(=O)Nc2ccc(OC)c(OC3CCCC3)c2)[C@H](C)[C@@H](O)[C@]1(C)O | 138 nM | 445 nM | 201 nM
CC[C@H]1OC(=O)[C@H](C)[C@@H](O[C@H]2C[C@@](C)(OC)[C@@H](O)[C@H](C)O2)[C@H](C)[C@@H](O[C@@H]2O[C@H](C)C[C@H](N(C)C)[C@H]2O)[C@](C)(O)C[C@@H](C)CN(CCCNC(=S)Nc2ccc(F)cc2)[C@H](C)[C@@H](O)[C@]1(C)O | 139 nM | 320 nM | 72.8 nM
CC[C@H]1OC(=O)[C@H](C)[C@@H](O[C@H]2C[C@@](C)(OC)[C@@H](O)[C@H](C)O2)[C@H](C)[C@@H](O[C@@H]2O[C@H](C)C[C@H](N(C)C)[C@H]2O)[C@](C)(O)C[C@@H](C)CN(CCCNC(=O)Nc2ccc(C)cc2)[C@H](C)[C@@H](O)[C@]1(C)O | 139 nM | 330 nM | 88.7 nM
CC[C@H]1OC(=O)[C@H](C)[C@@H](O[C@H]2C[C@@](C)(OC)[C@@H](O)[C@H](C)O2)[C@H](C)[C@@H](O[C@@H]2O[C@H](C)C[C@H](N(C)C)[C@H]2O)[C@](C)(O)C[C@@H](C)CN(CCCNC(=S)NC2CCCCCCCCCCC2)[C@H](C)[C@@H](O)[C@]1(C)O | 140 nM | 264 nM | 85 nM
CC[C@H]1OC(=O)[C@H](C)[C@@H](O[C@H]2C[C@@](C)(OC)[C@@H](O)[C@H](C)O2)[C@H](C)[C@@H](O[C@@H]2O[C@H](C)C[C@H](N(C)C)[C@H]2O)[C@](C)(O)C[C@@H](C)CN(CCCNC(=O)NCC2CCCCC2)[C@H](C)[C@@H](O)[C@]1(C)O | 142 nM | 610 nM | 113 nM
CC[C@H]1OC(=O)[C@H](C)[C@@H](O[C@H]2C[C@@](C)(OC)[C@@H](O)[C@H](C)O2)[C@H](C)[C@@H](O[C@@H]2O[C@H](C)C[C@H](N(C)C)[C@H]2O)[C@](C)(O)C[C@@H](C)CN(CCCNC(=O)Nc2ccc(OCc3ccccc3)cc2)[C@H](C)[C@@H](O)[C@]1(C)O | 146 nM | 299 nM | 175 nM
CC[C@H]1OC(=O)[C@H](C)[C@@H](O[C@H]2C[C@@](C)(OC)[C@@H](O)[C@H](C)O2)[C@H](C)[C@@H](O[C@@H]2O[C@H](C)C[C@H](N(C)C)[C@H]2O)[C@](C)(O)C[C@@H](C)CN(CCCNC(=S)NCC23CC4CC(CC(C4)C2)C3)[C@H](C)[C@@H](O)[C@]1(C)O | 152 nM | 553 nM | 210 nM
